“And” between values parts separate entries of the source, which are not always exact repeats. Equal entries are not always repeated.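 How tested: cells in 96-well plates exposed to compound for 48 hours at five concentrations. GI50 is the concentration that inhibits growth by half. At the TGI there is no net growth.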
What was measured:
Test in all cases: growth of human tumour cells (NCI), 48 h
[1] = system: HOP-92 NSCLC
[2] = system: MCF7 breast
[3] = system: KM12 colon
[4] = system: RPMI-8226 leukemia
[5] = system: UACC-257 melanoma
[6] = system: MDA-MB-435
[7] = system: OVCAR-3 ovarian
[8] = system: SW-620 colon
[9] = system: NCI/ADR-RES ovarian
[10] = system: HS 578T breast

COc1cc(/C=C/C(=O)c2cccc(-n3cc(-c4ccccc4)[nH]c3=O)c2)cc(OC)c1OC
GI50 [1]: 10.8 µM
TGI [1]: 35.6 µM
GI50 [2]: 0.31 µM
TGI [2]: 1.12 µM
GI50 [3]: 1.37 µM
TGI [3]: 2.66 µM
GI50 [4]: 0.626 µM
TGI [4]: > 100 µM
GI50 [5]: 1.52 µM
TGI [5]: 3.17 µM
GI50 [6]: 1.2 µM
TGI [6]: 5.35 µM
GI50 [7]: 1.23 µM
TGI [7]: 3.14 µM
GI50 [8]: 0.39 µM
TGI [8]: 1.39 µM
GI50 [9]: 1.09 µM
TGI [9]: 4.58 µM
GI50 [10]: 3.41 µM
TGI [10]: 27.1 µM

O=P1(NCCCl)OCCCN1CCCl (stereo not given)
TGI [1]: 367 µM
TGI [2]: 388 µM
TGI [3]: 448 µM
TGI [4]: 428 µM
TGI [5]: 421 µM
TGI [6]: > 500 µM
TGI [7]: 422 µM
TGI [8]: 401 µM
TGI [9]: 450 µM
TGI [10]: > 500 µM

Cc1ccc(NC(=O)c2ccc(CN3CCN(C)CC3)cc2)cc1Nc1nc(-c2cccnc2)cs1
GI50 [1]: 11 µM and > 10 µM
TGI [1]: 24.2 µM and > 10 µM
GI50 [2]: 5.97 µM and 2.84 µM
TGI [2]: 21.7 µM and > 10 µM
GI50 [3]: 9.85 µM and 6.72 µM
TGI [3]: 23.2 µM and > 10 µM
GI50 [4]: 3.19 µM and 2.31 µM
TGI [4]: 18.2 µM and > 10 µM
GI50 [5]: 7.9 µM and 7.34 µM
TGI [5]: 20.2 µM and > 10 µM
GI50 [6]: 8.24 µM and 5.64 µM
TGI [6]: 21.6 µM and > 10 µM
GI50 [7]: 11.7 µM and 3.5 µM
TGI [7]: 24.3 µM and > 10 µM
GI50 [8]: 5.68 µM and 4.58 µM
TGI [8]: 19.5 µM and > 10 µM
GI50 [9]: 22.7 µM and 7.39 µM
TGI [9]: > 86.7 µM
GI50 [10]: 8.45 µM and 3.52 µM
TGI [10]: 41.6 µM and > 10 µM

CC1CCCCCC(=O)c2c(O)cc(O)cc2CC(=O)O1 (stereo not given)
TGI [1]: > 100 µM
TGI [2]: > 100 µM
TGI [3]: > 100 µM
TGI [4]: > 100 µM
TGI [5]: > 100 µM
TGI [6]: > 100 µM
TGI [7]: > 100 µM
TGI [8]: > 100 µM
TGI [9]: > 100 µM
TGI [10]: > 100 µM

O=[N+]([O-])c1ccc(C2=NCCO2)cc1
GI50 [1]: > 100 µM
TGI [1]: > 100 µM
GI50 [2]: > 100 µM
TGI [2]: > 100 µM
GI50 [3]: > 100 µM
TGI [3]: > 100 µM
GI50 [4]: > 100 µM
TGI [4]: > 100 µM
GI50 [5]: > 100 µM
TGI [5]: > 100 µM
GI50 [6]: > 100 µM
TGI [6]: > 100 µM
GI50 [7]: > 100 µM
TGI [7]: > 100 µM
GI50 [8]: > 100 µM
TGI [8]: > 100 µM
GI50 [9]: > 100 µM
TGI [9]: > 100 µM
GI50 [10]: > 100 µM
TGI [10]: > 100 µM

C/C(=C\C(=O)O[C@H]1[C@@H]2[C@H](C)CC[C@H]2[C@]2(C)O[C@@]1(C1CCCCC1)C[C@H]2OC(=O)CO)c1ccccc1
GI50 [1]: 2.07 µM
TGI [1]: 8.09 µM
GI50 [2]: 5.4 µM
TGI [2]: 11.9 µM
GI50 [3]: 6.44 µM
TGI [3]: 13 µM
GI50 [4]: 7.2 µM
TGI [4]: 16.6 µM
GI50 [5]: 6.96 µM
TGI [5]: 13.3 µM
GI50 [6]: 6.84 µM
TGI [6]: 12.9 µM
GI50 [7]: 7.69 µM
TGI [7]: 13.9 µM
GI50 [8]: 6.78 µM
TGI [8]: 13.3 µM
GI50 [9]: 0.348 µM
TGI [9]: 7.49 µM
GI50 [10]: 0.0101 µM
TGI [10]: 0.0295 µM

C=CCC1(O)c2ccccc2C(=O)c2c(OCC(=O)OCC)ccc(OCC(=O)OCC)c21 (stereo not given)
GI50 [1]: 41.9 µM
TGI [1]: > 100 µM
GI50 [2]: > 100 µM
TGI [2]: > 100 µM
GI50 [3]: > 100 µM
TGI [3]: > 100 µM
GI50 [4]: 89 µM
TGI [4]: > 100 µM
GI50 [5]: > 100 µM
TGI [5]: > 100 µM
GI50 [6]: > 100 µM
TGI [6]: > 100 µM
GI50 [7]: > 100 µM
TGI [7]: > 100 µM
GI50 [8]: > 100 µM
TGI [8]: > 100 µM
GI50 [9]: > 100 µM
TGI [9]: > 100 µM
GI50 [10]: > 100 µM
TGI [10]: > 100 µM

CCC(=C(c1ccc(OCCN2CCCCC2)cc1)c1ccc(OCCN2CCCCC2)cc1)c1ccc(Cl)cc1
GI50 [1]: 1.57 µM
TGI [1]: > 16.7 µM
GI50 [2]: 0.761 µM
TGI [2]: > 16.7 µM
GI50 [3]: > 16.7 µM
TGI [3]: > 16.7 µM
GI50 [4]: 3.6 µM
TGI [4]: > 16.7 µM
GI50 [5]: 3.47 µM
TGI [5]: 8.08 µM
GI50 [6]: 2.61 µM
TGI [6]: 5.39 µM
GI50 [7]: 11.2 µM
TGI [7]: > 16.7 µM
GI50 [8]: 4.1 µM
TGI [8]: > 16.7 µM
GI50 [9]: > 16.7 µM
TGI [9]: > 16.7 µM
GI50 [10]: 4.23 µM
TGI [10]: > 16.7 µM

C[N+]1([O-])C2CCC1CC(OC(=O)C(CO)c1ccccc1)C2 (stereo not given)
TGI [1]: > 100 µM
TGI [2]: > 100 µM
TGI [3]: > 100 µM
TGI [4]: > 100 µM
TGI [5]: > 100 µM
TGI [6]: > 100 µM
TGI [7]: > 100 µM
TGI [8]: > 100 µM
TGI [9]: > 100 µM
TGI [10]: > 100 µM

CC(C)=CCc1cc2c(cc1O)C1=C(C(=O)C3=C(NCCS3(=O)=O)C1=O)C(C=C(C)C)O2 (stereo not given)
GI50 [1]: 6.89 µM
TGI [1]: > 16.7 µM
GI50 [2]: 2.86 µM
TGI [2]: 7.84 µM
GI50 [3]: 7.12 µM
TGI [3]: > 16.7 µM
GI50 [4]: 5.56 µM
TGI [4]: > 16.7 µM
GI50 [5]: 3.48 µM
TGI [5]: 9.66 µM
GI50 [6]: 2.89 µM
TGI [6]: 5.6 µM
GI50 [7]: 2.13 µM
TGI [7]: 10.1 µM
GI50 [8]: 5 µM
TGI [8]: > 16.7 µM
GI50 [9]: > 16.7 µM
TGI [9]: > 16.7 µM
GI50 [10]: 4.85 µM
TGI [10]: > 16.7 µM

C=C(CO)C(=O)OC1CC(=C)C2CC(O)C(C)C2C2OC(=O)C(=C)C12 (stereo not given)
TGI [1]: 77.6 µM
TGI [2]: 34.3 µM
TGI [3]: 33.6 µM
TGI [4]: 58.1 µM
TGI [5]: 32.7 µM
TGI [6]: 45.2 µM
TGI [7]: 34.2 µM
TGI [8]: 92.7 µM
TGI [9]: > 100 µM
TGI [10]: 47.5 µM

CCOC(=O)c1noc2c1CCc1c-2cn(Cc2ccc(OC)cc2)c1-c1cc(OC)c(OC)c(OC)c1
GI50 [1]: 2.72 µM
TGI [1]: > 100 µM
GI50 [2]: 0.348 µM
TGI [2]: > 100 µM
GI50 [3]: 0.91 µM
TGI [3]: > 100 µM
GI50 [4]: 2.85 µM
TGI [4]: > 100 µM
GI50 [5]: 85.8 µM
TGI [5]: > 100 µM
GI50 [6]: 0.574 µM
TGI [6]: > 100 µM
GI50 [7]: 0.37 µM
TGI [7]: 10.6 µM
GI50 [8]: 0.497 µM
TGI [8]: > 100 µM
GI50 [9]: 3.52 µM
TGI [9]: > 100 µM
GI50 [10]: 2.99 µM
TGI [10]: > 100 µM

Source: PubChem BioAssay (NCI)
